Like-named read-outs stand apart in the source and are kept apart here. Numbered stars: 1 amine (or outer) side, 2 acyl side, 3 side chain; on linkers, the order of the positions; unused ones are H or OH. Bridge positions count the residues as written; N and C are the ends. Square brackets hold non-standard residues; d marks the D form. Peptide text beside a SMILES is read from it. X1 = C=C(N[*:2])c1nc(-c2nc(-c3nc(C(=O)OC)cs3)ccc2C(=O)[*:1])cs1; NMePhe(4-NO2) = CN[C@@H](Cc1ccc([N+](=O)[O-])cc1)C(=O)O; Tic(7-OH) = O=C(O)[C@@H]1Cc2ccc(O)cc2CN1; X2 = O=C(c1csc([C@H](CO)N[*:1])n1)[*:2]; NMeA = CN[C@@H](C)C(=O)O; Dhb = C/C=C(\N)C(=O)O; Dha = C=C(N)C(=O)O; Sar = CNCC(=O)O
What was measured:
MINK = MINK (Homo sapiens, UniProt Q8N4C8); experiment: Kinase selectivity profiling (STE-1 kit, ADP-Glo readout): MINK; assay type: biochemical; conditions: 1 μM thiopeptide
Sequence of MINK (Q8N4C8 whole entry): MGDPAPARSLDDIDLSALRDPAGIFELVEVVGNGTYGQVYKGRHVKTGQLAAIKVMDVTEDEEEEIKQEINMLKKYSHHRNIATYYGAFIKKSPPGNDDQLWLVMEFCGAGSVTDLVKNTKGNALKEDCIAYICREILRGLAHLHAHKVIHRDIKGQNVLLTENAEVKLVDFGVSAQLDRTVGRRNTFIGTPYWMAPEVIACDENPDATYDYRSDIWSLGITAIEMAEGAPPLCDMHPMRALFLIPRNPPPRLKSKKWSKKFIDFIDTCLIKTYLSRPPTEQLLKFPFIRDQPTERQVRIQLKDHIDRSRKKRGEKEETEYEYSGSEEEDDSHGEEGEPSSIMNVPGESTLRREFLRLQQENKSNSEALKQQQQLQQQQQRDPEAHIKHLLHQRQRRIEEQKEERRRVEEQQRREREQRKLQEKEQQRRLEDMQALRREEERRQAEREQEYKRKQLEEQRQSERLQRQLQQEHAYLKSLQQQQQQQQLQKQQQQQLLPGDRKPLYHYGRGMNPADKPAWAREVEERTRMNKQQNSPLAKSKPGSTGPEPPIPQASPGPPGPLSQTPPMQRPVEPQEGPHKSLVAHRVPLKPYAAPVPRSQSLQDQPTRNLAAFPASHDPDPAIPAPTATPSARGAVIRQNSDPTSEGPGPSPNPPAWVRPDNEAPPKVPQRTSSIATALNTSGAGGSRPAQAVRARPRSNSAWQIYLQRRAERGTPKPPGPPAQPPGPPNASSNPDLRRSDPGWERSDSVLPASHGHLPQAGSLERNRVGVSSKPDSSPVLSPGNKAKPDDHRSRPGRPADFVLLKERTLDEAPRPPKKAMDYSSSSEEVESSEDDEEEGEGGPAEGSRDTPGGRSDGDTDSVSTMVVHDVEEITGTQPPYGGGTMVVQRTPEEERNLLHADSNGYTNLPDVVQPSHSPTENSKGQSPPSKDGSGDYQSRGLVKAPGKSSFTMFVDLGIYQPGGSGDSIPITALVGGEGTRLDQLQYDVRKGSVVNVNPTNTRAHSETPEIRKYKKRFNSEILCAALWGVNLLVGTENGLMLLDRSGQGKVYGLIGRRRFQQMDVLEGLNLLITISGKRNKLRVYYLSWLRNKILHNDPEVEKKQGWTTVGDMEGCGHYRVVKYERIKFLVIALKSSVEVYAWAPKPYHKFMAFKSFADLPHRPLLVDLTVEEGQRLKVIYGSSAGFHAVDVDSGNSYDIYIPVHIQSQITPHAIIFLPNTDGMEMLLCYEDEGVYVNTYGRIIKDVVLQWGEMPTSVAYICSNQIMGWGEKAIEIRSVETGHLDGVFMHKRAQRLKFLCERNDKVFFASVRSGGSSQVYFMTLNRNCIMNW
Experimental: (§1) 2.9. Kinase inhibition assays with ADP-Glo
(§2) The ADP-Glo assay system was purchased from Promega. The kinase reaction buffer contained 50 mM Tris (pH 7.5), 10 mM MgCl2 and 0.01% (v/v) triton X-100. […]
(§3) The reactions were stopped by the addition of ADP -Glo reagent (1 volume), and the luminescent signal was developed following the manufacturer’s instructions. […]
(§4) Kinase selectivity profiling. A STE-1 kinase selectivity profiling kit from Promega was utilized to assay the compounds. The experiment was conducted following the manufacturer’s instructions, and the signal was developed using the ADP-Glo assay system as described above. All measurements were performed in triplicate. After background correction, the kinase activities were normalized to a no inhibitor control , and percent remaining activity values were calculated accordingly. […]

trypsin = system: T1, trypsin; experiment: Stability to agarose-immobilized trypsin (LC/MS); assay type: in vitro ADME; conditions: isolated enzyme trypsin, pH 7.9
T1 construct: purchased Thermo Fisher
Experimental: 2.10. Thiopeptide metabolic stability experiments
Stability to trypsin. To a solution of the analyte thiopeptide (15 µM) and the internal standard peptide (5 µM NH2-PEG5-wstndwdtnd-PEG5-CONH2;ref 16 lower case encoding is for D-amino acids; synthesized using the standard Fmoc SPPS techniques) in digestion buffer [50 mM tris, 100 mM NaCl, 10 mM EDTA, pH 7.9] was added agarose -immobilized TPCK-treated trypsin (Thermo Fisher; 1 µL of resin slurry; 100 µL final reaction volume ) that was previously washed with digestion buffer thrice. The mixture was agitated at 22 °C, and at various timepoints (0.5, 1, 2, 4, and 6 h) aliquots were withdrawn and quenched with 14 volumes of water/acetonitrile mixture [30: 70 (v/v) water: acetonitr ile with 0.1% (v/v) TFA]. […]

in vitro = conditions: buffer or solvent, pH 7.5
TNIK [1] = target: T2, TNIK (Homo sapiens, UniProt Q9UKE5); experiment: Surface plasmon resonance, binding of thiopeptides to immobilized biotinylated TNIK (single-cycle, then multicycle kinetics); set-up: Biotinylated TNIK (kinase domain, amino acids 1-314;); biotin (biotinylated protein); purchased Carna Biosciences (Kobe, Japan)
Experimental: 2.8. Surface plasmon resonance
In the initial experiment, binding affinities between the thiopeptides and TNIK were measured with a Biacore T200 instrument (GE Healthcare) at 25 °C. The assay buffer contained 50 mM Tris (pH 7.5), 150 mM NaCl, 10 mM MgCl2, 0.01% (v/v) tween-20 and 0.1% (v/v) DMSO. For wTP3, the assay buffer additionally contained ATP (f.c.: 1 mM).
Biotinylated TNIK was immobilized on a Biacore CAP chip (GE Healthcare) to a surface density of 950-1200 response units following the standard immobilization protocols provided by the manufacturer. The interaction sensorgrams were measured as single-cycle kinetics performed with five concentrations of the ligand sequentially flown over the chip at a flow rate of 15 μL/min allowing for 20 or 30 s association and 70 or 60 s for dissociation between the steps. The final dissociation step was allowed to proceed for 180 s. […]
was repeated in triplicate on a Biacore 8K instrument (GE Healthcare) using a multi cycle kinetics format. The experimental details were as above, except ATP was not added to the buffer for wTP3. Kinetic parameters and affinities of the interaction were determined assuming the standard 1:1 binding model using the Biacore software (GE Healthcare).
Reported KD values were calculated from the average measured association and dissociation rates (Table S5).
Target sequence in this assay (Q9UKE5 1-314): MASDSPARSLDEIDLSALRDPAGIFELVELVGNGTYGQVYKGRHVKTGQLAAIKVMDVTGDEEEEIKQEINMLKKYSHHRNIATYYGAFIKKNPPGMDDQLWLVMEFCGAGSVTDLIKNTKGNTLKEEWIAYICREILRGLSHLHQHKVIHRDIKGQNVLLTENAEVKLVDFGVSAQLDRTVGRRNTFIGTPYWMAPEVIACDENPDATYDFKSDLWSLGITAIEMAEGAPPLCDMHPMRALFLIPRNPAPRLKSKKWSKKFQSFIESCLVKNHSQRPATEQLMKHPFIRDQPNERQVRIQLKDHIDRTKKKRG

TNIK [2] = target: T2, TNIK; experiment: ADP-Glo kinase inhibition assay; assay type: biochemical; set-up: Biotinylated TNIK (kinase domain, amino acids 1-314;); biotin (biotinylated protein); purchased Carna Biosciences (Kobe, Japan); conditions: 0.5 nM TNIK, 25 µM ATP, 15 µM MSTtide, 4-parameter logistic fit; for IC50: read-out: ADP-Glo IC50 against TNIK
Experimental: as §1
Target sequence in this assay (Q9UKE5 1-314): as above
The ADP-Glo assay system was purchased from Promega. The kinase reaction buffer contained 50 mM Tris (pH 7.5), 10 mM MgCl2 and 0.01% (v/v) triton X-100. TNIK (1.25 nM) was incubated with various concentrations of analyte inhibitors in kinase reaction buffer at 25 °C for 10 min. After, the reactions were initiated by the addition of ATP and substrate […]
peptide (MSTtide, sequence: NH2-NKGYNTLRRKK-CONH2;ref 14 synthesized using the standard Fmoc SPPS techniques). The final mixtures containing 0.5 nM TNIK, 25 µM ATP, 15 µM MSTtide and variable concentration of the inhibitors were incubated at 25 °C for 30 min. The reactions were stopped by the addition of ADP -Glo reagent (1 volume), and the luminescent signal was developed following the manufacturer’s instructions. Luminesce was recorded on a Tecan M1000 PRO microplate reader (Tecan Group) with 1 s acquisition time and no signal attenuation. TNIK kinase activity was normalized to a no inhibitor control, and […]
values to the standard 4-parameter logistic curve model. […]

[3] = Stability to glutathione (LC/MS); conditions: 5 mM glutathione in HEPES buffer, pH 7.5
Experimental: Stability to glutathione. To a freshly prepared solution of glutathione (5 mM) in stability
buffer [50 mM HEPES (pH 7.5), 100 mM NaCl] was added a solution of analyte (1.5 mM
thiopeptide in DMSO; f. c.: 10 µM). The contents were mixed and transferred to a 37 °C
thermostat. At various time points (0.5, 1, 2, 4, 6, and 10 h) aliquots were withdrawn and
quenched with 2 volumes of methanol containing 30 mM iodoacetamide. The samples were
analyzed by LC/MS (0.3 µL; section 2.6) using method 3. Areas under the peak curve for all
thiopeptide-derived products in the sample (TIC chromatograms) were used to calculate
fractions of intact analyte. Thiopeptide half-life values were obtained from non-linear
regression (scipy)15 of experimentally measured values to the pseudo-first order
approximation for the reaction kinetics which can be used since [glutathione] >> [analyte].

[4] = system: HCT116 colon carcinoma cells; experiment: Cell viability assay (Cell Counting Kit-8); conditions: for cytotoxicity (cell viability) after 24 h incubation: 10 μM, thiopeptide acetate salts
Experimental: HCT116 cells were cultured in McCoy's 5A (Modified) Medium supplemented with 1% (v/v)
penicillin-streptomycin and 10% (v/v) fetal bovine serum (all from Thermo Fisher) in a
All assays were conducted using thiopeptide acetate salts prepared as follows. Strong
anion resin (AG® 1–X8 acetate form, analytical grade, quaternary ammonium 10~50 mg)
was first washed three times with 1.6 N acetic acid and three times with 0.16 N acetic acid.
Then, a thiopeptide solution ( 0.5~3 mg, dissolved in water/ acetonitrile [1:1, v/v; ~1 ml]) was
added to the resin. After 2 h on a rotary shaker, the peptide-resin suspension was ﬁltered
and the liquid phase was recovered. The resin was washed twice with water/acetonitrile (1:1,
v/v; 0.5 ml/wash), and the solutions were combined.
Cell viability assays. HCT116 cells were grown to 40–50% confluency in 96-well plates
that the final DMSO concentration is 1% (v/v) for every sample. In the first experiment (Fig.
S44a), the cells were grown for 24 h, and the incubation time was further extended to 48 h
In both cases, the cell viability was
directly assayed with Cell Counting Kit-8 (Dojindo) following the manufacturer’s instructions
allowing 4 h to develop the signal. Absorbance at 450 nm was measured on a Tecan M1000
PRO microplate reader (Tecan Group), and live cell counts were normalized to the DMSO
control. All experiments were performed in triplicate, and in most cases, replicated at least
once to analogous outcomes.

[5] = Serum stability assay (LC/MS against internal standard); conditions: human, human serum diluted in TBS, pH 7.6
Experimental: The ratio of areas under the peak for the intact analyte over the internal standard (EIC
chromatograms generated with m/z ± 3 cutoff values) were used to calculate the extent of
analyte degradation. Thiopeptide half-life values were obtained from non-linear regression
(scipy)15 of experimentally measured values to the standard first order kinetic decomposition
Serum stability assay. To a solution of analyte thiopeptide (13.3 µM) and the internal
standard peptide in TBS [5 µM; buffer: 50 mM Tris (pH 7.6), 150 mM NaCl] human serum
(0.33 volumes; Cosmo Bio) was added on ice. The solutions were mixed well and transferred to a 37 °C thermostat. At various timepoints, aliquots were withdrawn and quenched with 2.3 volumes of methanol containing 30 mM iodoacetamide. The mixtures were incubated on
ice for 15 min and then at 25 °C for 30 min. The samples were then centrifuged (15300 g for
5 min), and the supernatant (0.5 µL) was analyzed by LC/MS (section 2.5) using method 6
1 – 10 min 1 – 81% B, linear ramp
Data analysis was conducted as for the trypsin digestion assays.

[6] = human serum (0.33 volumes; Cosmo Bio) added to thiopeptide and internal standard in TBS; conditions: 37 °C, up to various timepoints, time axis of Fig. 5c runs to 30 h
TNIK [7] = target: T2, TNIK; experiment: Kinase selectivity profiling (STE-1 kit, ADP-Glo readout): TNIK; assay type: biochemical; conditions: 10 μM thiopeptide
Experimental: as §1, §2, §3, §4
Target sequence in this assay (Q9UKE5 whole entry, the tested form may be a part): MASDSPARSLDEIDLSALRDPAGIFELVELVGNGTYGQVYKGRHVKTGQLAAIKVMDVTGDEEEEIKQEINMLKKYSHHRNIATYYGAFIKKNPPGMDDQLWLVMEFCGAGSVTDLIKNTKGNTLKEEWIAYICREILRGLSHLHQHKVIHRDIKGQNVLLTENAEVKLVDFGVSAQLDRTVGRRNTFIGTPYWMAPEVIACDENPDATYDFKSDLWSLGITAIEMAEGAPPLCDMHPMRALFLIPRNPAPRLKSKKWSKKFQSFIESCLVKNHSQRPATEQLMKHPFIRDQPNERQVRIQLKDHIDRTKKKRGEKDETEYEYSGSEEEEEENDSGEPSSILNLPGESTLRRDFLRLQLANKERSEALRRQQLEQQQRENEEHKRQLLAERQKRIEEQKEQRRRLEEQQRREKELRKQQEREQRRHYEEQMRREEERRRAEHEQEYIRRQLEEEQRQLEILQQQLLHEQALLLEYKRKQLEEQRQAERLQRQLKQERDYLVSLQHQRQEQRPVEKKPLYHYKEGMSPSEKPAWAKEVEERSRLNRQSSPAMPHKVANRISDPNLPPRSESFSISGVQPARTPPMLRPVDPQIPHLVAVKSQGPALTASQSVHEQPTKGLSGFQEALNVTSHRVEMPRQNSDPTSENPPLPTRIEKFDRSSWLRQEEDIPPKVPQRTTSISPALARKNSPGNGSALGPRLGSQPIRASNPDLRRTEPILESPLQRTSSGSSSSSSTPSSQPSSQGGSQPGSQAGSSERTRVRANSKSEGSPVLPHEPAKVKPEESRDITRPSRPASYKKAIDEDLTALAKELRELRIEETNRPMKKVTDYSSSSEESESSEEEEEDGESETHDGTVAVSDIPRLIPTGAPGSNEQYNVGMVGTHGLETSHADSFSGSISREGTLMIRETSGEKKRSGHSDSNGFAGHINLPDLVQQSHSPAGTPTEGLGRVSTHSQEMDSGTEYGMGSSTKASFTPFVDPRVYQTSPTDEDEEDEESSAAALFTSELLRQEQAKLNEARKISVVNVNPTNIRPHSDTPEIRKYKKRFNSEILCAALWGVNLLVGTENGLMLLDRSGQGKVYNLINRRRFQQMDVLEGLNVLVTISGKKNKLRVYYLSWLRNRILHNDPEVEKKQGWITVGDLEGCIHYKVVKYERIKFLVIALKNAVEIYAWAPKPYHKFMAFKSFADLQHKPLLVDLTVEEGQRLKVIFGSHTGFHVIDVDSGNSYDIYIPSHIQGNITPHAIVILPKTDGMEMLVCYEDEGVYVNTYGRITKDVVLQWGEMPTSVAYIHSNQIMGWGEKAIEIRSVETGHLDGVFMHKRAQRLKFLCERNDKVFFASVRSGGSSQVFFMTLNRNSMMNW

[8] = system: agarose-immobilized TPCK-treated trypsin (Thermo Fisher); experiment: agarose-immobilized TPCK-treated trypsin in digestion buffer [50 mM tris, 100 mM NaCl, 10 mM EDTA, pH 7.9]; conditions: 22 °C, up to 6 h
[9] = SPR kinetic data, binding to immobilized TNIK
[10] = SPR kinetic data, binding to immobilized TNIK, read-out: KD
[11] = average from three multicycle kinetic experiments, 1:1 binding model, 25 °C

Molecule	half-life at 15 µM (trypsin) [min]	half-life at 10 µM (in vitro) [days]	koff (TNIK [1]; [9]) [s⁻¹]	kon (TNIK [1]; [9]) [M⁻¹ s⁻¹]	Kd (TNIK [1]; [10]) [nM]	KD (binding affinity to TNIK) (TNIK [1]; [11])	IC50 (TNIK [2]) [nM]	cytotoxicity (cell viability) after 24 h incubation [4]	fragment found [6]	also measured
C=C1NC(=O)[C@H](CC(C)C)NC(=O)[C@H](CC(N)=O)NC(=O)[C@H](CO)NC(=O)[C@H](CCCNC(=N)N)NC(=O)[C@H](CCCNC(=N)N)NC(=O)CN(C)C(=O)[C@H](C)N(C)C(=O)[C@H](CC(C)C)NC(=O)[C@H](CCCNC(=N)N)NC(=O)[C@@H]2CCCN2C(=O)[C@@H]2Cc3ccc(O)cc3CN2C(=O)[C@H]([C@@H](C)O)NC(=O)[C@H](Cc2c[nH]c3ccccc23)NC(=O)c2ccc(-c3nc(C(=O)OC)cs3)nc2-c2csc1n2 [hTP15] (WT[Tic(7-OH)]PRL[NMeA][Sar]RRSNL; linker N-C via X1)	84 ± 6	4.21 ± 0.292	0.0216	4.78e+06	4.5	single-digit	150 ± 10	–	–	inhibition of MINK (MINK): 60%; ADP-Glo IC50 against TNIK (TNIK [2]): sub-μM
C=C1NC(=O)CN(C)C(=O)[C@H](CC(N)=O)NC(=O)c2csc(n2)[C@H](CO)NC(=O)[C@H](Cc2c[nH]c3ccccc23)NC(=O)[C@H](Cc2c[nH]c3ccccc23)NC(=O)c2ccc(-c3nc(C(=O)OC)cs3)nc2-c2csc(n2)C(=C)NC(=O)[C@H](C)NC(=O)/C(=C/C)NC(=O)[C@@H]2Cc3ccc(O)cc3CN2C(=O)[C@H](Cc2ccc([N+](=O)[O-])cc2)N(C)C(=O)CN(C)C(=O)C(=C)NC1=O [wTP12] (WW[X2]N[Sar][Dha][Dha][Sar][NMePhe(4-NO2)][Tic(7-OH)][Dhb]A; linker N-C via X1)	> 6000	–	0.0597	308000	194	–	1270 ± 90	inactive	–	half-life at 10 µM [3]: 984 ± 120 min; half-life at 10 µM [5]: 2.35 ± 0.267 days
WLRTgRaSTfTG	–	–	–	–	–	–	–	–	demethylated but otherwise undigested thiopeptides	–
C=C1NC(=O)[C@H](C)N(C)C(=O)[C@H](CCCNC(=N)N)NC(=O)CN(C)C(=O)/C(=C/C)NC(=O)[C@H](CCCNC(=N)N)NC(=O)[C@H](CC(C)C)NC(=O)[C@H](Cc2c[nH]c3ccccc23)NC(=O)[C@H](Cc2c[nH]c3ccccc23)NC(=O)c2ccc(-c3nc(C(=O)OC)cs3)nc2-c2csc(n2)C(=C)NC(=O)CNC(=O)/C(=C/C)NC(=O)[C@H](Cc2ccc([N+](=O)[O-])cc2)N(C)C(=O)[C@H]([C@@H](C)O)NC1=O [hTP8] (WWLR[Dhb][Sar]R[NMeA][Dha]T[NMePhe(4-NO2)][Dhb]G; linker N-C via X1)	294 ± 36	0.267 ± 0.00417	0.00256	1.21e+06	–	single-digit	1180 ± 160	more cytotoxic than a small molecule control, NCB0846	–	suppression of TNIK activity (TNIK [7]): 94%; concentrations at which strongly cytotoxic ([4]; dose-dependent assay): above 5 µM; IC50 ([4]; read-out: IC50, cell viability, dose-dependent 48 h incubation): 7.2 µM; Kd (TNIK [1]; average from three multicycle kinetic experiments, 1:1 binding model, 25 °C, read-out: KD (binding affinity to TNIK)): 2.1 nM
WSCNgSSgfyTA	–	–	–	–	–	–	–	–	demethylated but otherwise undigested thiopeptides	not cleaved [8]: did not degrade (6 h); completely stable; τ1/2 >100 h
